Measurements: paper PMC4286194 (Biochemical Journal, 2015)

Assays:
[1] = tested on: Bone-marrow-derived macrophages; assay: IL-10 secretion (BIOPLEX) in LPS-stimulated macrophages; format: cell-based, mouse; conditions: for EC50: Mus musculus, Macrophage, read-out: EC50 for elevation of IL-10 secretion; for IL-10 production at optimal dose: dasatinib 300 nM, bosutinib 3 μM, HG-9-91-01 500 nM, LPS-stimulated
Description: The concentration of TNFα, IL-6, IL-10 and IL-12p40 in cell-free culture supernatants were measured using the Bio-Plex Pro Assay system (Bio-Rad).

[2] = tested on: RAW264.7 macrophages expressing HA-SIK2[T96Q]; assay: IL-10 and Nurr77 mRNA in macrophages expressing drug-resistant SIK2; format: cell-based; conditions: cells expressing drug-resistant SIK2[T96Q]; drug 1 h, LPS 1 h
Description: Primary macrophages were generated by differentiating bone marrow from 6- to 12-week-old C57BL/6 mice for 7 days in Dulbecco's modified Eagle's medium (DMEM) supplemented with 5 ng/ml recombinant M-CSF (R&D systems), 2 mM glutamine, 10% FBS, penicillin and streptomycin. Bone-marrow-derived macrophages were differentiated on non-tissue-culture-treated plastic, harvested and replated at a density of 100000 cells/cm^2 per 0.1 ml on tissue culture-treated plastic in fresh medium before stimulation on day 8. RAW264.7 cells were cultured in DMEM containing 10% FBS, 2 mM glutamine and penicillin and streptomycin. […] Cells were treated for 1 h with or without inhibitors and then stimulated for up to 24 h with either 1 μg/ml Pam3CSK4 or 100 ng/ml LPS.
mRNA was extracted from cells using the MicroElute Total RNA kit following the manufacturers’ instructions (Omega Bio-Tek). cDNA was generated from 0.5 μg of total RNA using the iScript cDNA synthesis kit and quantified by quantitative real-time PCR (qPCR) using the SsoFast EvaGreen Supermix on a CFX384 real-time system (Bio-Rad Laboratories). The relative expression of each gene was calculated from CT values using the Pfaffl method and was normalized against the mRNA levels of housekeeping genes including 18S RNA and GAPDH.

[3] = biological target: JAK2 (Homo sapiens, UniProt O60674); assay: Kinase profiling; format: biochemical
[4] = biological target: T1, MAP4K3 (Homo sapiens, UniProt Q8IVH8); assay: Kinase profiling; format: biochemical
T1 sequence (Q8IVH8 1-894): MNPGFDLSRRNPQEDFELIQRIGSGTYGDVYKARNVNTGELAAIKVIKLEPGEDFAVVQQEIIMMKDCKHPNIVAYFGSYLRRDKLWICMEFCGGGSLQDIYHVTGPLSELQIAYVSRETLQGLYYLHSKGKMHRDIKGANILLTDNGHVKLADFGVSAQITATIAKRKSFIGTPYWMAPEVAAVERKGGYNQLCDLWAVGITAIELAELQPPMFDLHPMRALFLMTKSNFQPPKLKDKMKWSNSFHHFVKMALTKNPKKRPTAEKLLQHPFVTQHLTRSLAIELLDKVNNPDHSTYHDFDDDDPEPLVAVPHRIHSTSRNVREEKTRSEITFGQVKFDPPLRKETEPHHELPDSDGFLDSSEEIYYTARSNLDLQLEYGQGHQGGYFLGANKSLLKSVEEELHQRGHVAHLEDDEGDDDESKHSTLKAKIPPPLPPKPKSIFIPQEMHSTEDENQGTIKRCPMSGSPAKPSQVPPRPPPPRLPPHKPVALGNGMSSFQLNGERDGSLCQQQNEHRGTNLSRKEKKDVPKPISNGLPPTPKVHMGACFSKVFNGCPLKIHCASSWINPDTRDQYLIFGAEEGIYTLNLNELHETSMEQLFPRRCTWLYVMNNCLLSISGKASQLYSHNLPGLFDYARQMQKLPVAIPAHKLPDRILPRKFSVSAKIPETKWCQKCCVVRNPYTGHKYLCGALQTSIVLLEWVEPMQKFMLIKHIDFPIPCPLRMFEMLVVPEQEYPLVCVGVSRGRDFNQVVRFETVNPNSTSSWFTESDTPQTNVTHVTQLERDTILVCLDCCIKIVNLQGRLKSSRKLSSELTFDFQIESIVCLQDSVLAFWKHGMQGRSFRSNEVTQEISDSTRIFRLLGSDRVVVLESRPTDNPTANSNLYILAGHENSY

[5] = biological target: MAPKAP-K3 (Homo sapiens, UniProt Q16644); assay: Kinase profiling; format: biochemical
[6] = biological target: MEKK1 (Homo sapiens, UniProt Q13233); assay: Kinase profiling; format: biochemical
[7] = biological target: PAK6 (Homo sapiens, UniProt Q9NQU5); assay: Kinase profiling; format: biochemical
[8] = biological target: PKB beta (Homo sapiens, UniProt P31751); assay: Kinase profiling; format: biochemical
[9] = biological target: PKC alpha (Homo sapiens, UniProt P17252); assay: Kinase profiling; format: biochemical
[10] = biological target: T2, PKC zeta (Homo sapiens, UniProt Q05513); assay: Kinase profiling; format: biochemical
T2 sequence (Q05513 1-592): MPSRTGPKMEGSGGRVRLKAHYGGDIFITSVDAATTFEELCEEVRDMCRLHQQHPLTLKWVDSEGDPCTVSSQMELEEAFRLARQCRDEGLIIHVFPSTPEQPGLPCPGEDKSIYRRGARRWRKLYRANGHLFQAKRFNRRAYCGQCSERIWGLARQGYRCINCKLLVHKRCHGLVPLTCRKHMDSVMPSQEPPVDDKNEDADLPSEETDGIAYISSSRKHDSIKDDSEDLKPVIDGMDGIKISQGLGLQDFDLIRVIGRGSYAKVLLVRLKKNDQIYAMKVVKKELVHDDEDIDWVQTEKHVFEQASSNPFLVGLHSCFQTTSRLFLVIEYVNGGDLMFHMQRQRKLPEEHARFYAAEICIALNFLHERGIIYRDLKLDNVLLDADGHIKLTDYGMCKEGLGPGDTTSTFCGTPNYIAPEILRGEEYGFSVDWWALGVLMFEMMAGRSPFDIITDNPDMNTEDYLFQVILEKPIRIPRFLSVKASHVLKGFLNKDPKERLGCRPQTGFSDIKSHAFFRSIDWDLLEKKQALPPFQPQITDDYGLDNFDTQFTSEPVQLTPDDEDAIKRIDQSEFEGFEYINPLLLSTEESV

Chain of MEKK1 (Q13233 whole entry): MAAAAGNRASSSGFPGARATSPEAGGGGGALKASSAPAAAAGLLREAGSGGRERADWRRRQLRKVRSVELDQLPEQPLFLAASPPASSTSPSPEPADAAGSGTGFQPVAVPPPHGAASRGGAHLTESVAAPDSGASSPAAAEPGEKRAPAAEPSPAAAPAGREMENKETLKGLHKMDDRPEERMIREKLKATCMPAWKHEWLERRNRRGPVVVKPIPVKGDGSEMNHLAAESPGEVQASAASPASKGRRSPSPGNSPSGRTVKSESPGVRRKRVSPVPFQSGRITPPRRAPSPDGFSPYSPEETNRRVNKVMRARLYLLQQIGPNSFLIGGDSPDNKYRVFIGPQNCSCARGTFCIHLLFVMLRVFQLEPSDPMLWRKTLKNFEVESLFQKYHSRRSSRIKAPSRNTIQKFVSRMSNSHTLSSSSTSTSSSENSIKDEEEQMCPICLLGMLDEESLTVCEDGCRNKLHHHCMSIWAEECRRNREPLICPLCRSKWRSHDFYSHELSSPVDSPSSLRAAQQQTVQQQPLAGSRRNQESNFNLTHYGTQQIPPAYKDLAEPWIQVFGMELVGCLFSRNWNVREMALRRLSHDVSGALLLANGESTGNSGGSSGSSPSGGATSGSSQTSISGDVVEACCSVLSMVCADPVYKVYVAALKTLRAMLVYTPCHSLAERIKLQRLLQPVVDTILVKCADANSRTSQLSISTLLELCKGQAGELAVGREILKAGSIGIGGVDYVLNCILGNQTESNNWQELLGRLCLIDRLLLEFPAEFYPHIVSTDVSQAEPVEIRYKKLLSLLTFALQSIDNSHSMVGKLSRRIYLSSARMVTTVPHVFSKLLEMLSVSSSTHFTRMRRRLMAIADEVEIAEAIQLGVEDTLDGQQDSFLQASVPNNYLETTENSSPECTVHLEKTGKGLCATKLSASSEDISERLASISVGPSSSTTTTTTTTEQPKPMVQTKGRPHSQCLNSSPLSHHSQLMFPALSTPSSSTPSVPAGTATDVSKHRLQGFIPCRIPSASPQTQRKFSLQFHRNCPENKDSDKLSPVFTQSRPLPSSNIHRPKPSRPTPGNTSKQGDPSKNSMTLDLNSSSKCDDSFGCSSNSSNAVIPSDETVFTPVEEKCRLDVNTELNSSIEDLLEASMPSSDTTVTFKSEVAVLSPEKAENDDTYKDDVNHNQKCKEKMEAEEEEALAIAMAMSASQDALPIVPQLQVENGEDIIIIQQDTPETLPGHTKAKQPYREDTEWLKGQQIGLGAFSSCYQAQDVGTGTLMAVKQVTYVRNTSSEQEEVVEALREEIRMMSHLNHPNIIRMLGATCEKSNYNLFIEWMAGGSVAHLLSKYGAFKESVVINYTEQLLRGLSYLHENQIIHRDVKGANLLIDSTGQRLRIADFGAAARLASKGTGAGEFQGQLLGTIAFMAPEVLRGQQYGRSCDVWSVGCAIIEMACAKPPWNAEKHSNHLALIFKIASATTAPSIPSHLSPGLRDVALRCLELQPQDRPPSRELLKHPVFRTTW
Chain of PKB beta (P31751 whole entry): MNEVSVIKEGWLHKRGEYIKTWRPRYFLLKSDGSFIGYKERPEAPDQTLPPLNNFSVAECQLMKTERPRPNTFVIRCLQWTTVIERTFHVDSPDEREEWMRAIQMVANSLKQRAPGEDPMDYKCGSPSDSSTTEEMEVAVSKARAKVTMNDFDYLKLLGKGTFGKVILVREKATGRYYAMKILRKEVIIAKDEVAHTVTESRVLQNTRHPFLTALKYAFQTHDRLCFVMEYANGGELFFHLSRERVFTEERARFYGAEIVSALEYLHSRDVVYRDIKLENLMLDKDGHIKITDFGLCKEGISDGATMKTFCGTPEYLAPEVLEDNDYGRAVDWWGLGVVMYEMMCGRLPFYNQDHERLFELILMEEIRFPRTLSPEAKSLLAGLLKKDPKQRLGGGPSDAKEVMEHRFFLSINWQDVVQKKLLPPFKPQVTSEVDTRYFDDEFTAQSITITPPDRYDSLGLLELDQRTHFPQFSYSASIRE
Chain of MAPKAP-K3 (Q16644 whole entry): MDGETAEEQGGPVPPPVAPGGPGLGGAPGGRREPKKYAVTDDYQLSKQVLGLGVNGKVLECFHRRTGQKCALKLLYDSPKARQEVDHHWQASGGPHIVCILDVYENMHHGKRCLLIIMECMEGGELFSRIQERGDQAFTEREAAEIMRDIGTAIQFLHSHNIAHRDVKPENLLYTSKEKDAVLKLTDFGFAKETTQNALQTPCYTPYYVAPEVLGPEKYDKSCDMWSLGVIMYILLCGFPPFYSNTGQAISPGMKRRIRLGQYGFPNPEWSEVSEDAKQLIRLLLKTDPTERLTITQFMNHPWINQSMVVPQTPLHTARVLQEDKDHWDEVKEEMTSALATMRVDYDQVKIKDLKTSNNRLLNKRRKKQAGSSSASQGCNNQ
Chain of PAK6 (Q9NQU5 whole entry): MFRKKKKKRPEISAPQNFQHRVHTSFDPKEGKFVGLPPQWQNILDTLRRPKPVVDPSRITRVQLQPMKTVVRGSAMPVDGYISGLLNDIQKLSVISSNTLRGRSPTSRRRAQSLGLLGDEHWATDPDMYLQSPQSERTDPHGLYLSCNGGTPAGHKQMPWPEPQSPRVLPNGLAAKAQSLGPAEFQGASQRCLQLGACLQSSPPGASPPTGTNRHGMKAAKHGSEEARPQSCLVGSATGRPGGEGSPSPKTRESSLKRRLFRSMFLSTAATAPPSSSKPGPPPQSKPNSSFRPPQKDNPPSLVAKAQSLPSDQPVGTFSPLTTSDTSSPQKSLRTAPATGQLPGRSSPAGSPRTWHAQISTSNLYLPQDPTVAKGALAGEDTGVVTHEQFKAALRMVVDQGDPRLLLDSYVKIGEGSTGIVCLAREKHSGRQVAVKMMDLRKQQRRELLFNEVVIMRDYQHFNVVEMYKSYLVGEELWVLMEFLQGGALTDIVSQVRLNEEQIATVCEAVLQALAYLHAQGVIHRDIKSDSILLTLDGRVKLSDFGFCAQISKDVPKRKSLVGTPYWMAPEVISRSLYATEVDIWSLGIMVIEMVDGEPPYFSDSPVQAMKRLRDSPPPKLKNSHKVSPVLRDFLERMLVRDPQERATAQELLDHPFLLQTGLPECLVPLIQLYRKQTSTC
Chain of JAK2 (O60674 whole entry): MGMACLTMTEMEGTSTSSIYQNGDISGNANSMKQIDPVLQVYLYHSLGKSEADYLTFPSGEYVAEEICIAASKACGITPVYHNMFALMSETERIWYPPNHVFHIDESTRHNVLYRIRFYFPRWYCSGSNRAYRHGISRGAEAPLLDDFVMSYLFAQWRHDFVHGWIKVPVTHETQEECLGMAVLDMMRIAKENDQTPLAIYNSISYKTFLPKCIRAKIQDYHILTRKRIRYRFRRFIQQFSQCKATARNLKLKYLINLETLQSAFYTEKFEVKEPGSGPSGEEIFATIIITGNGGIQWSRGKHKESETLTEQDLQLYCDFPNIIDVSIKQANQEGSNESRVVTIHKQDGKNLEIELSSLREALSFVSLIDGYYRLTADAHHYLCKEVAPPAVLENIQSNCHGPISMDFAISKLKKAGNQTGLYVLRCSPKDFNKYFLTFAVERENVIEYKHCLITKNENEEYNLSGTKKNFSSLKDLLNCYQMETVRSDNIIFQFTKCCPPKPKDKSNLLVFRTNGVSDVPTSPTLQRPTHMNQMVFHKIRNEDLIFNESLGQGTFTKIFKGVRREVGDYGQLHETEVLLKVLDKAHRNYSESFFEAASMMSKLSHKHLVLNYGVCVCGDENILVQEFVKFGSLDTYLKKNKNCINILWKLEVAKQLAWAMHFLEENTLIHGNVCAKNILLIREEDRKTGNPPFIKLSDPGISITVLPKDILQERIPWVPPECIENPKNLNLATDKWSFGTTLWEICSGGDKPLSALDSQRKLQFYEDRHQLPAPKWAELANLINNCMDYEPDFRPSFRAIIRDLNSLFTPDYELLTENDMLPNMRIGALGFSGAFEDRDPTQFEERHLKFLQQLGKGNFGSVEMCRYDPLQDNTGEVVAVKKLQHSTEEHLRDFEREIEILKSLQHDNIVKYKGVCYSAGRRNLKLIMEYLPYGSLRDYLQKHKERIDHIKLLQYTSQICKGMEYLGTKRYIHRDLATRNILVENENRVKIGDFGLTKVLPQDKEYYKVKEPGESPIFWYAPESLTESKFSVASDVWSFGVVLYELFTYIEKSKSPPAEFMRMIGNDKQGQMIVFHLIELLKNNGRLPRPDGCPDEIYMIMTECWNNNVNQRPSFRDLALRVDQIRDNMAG

Compound	EC50 [1] [nM]	IL-10 production at optimal dose [1]	LPS-stimulated CREB-dependent gene transcription including IL-10 and Nurr77 [2]	remaining activity at 0.1 µM [3] [%]	remaining activity at 1 µM [3] [%]	remaining activity at 0.1 µM [4] [%]	remaining activity at 1 µM [4] [%]	remaining activity at 0.1 µM [5] [%]	remaining activity at 1 µM [5] [%]	remaining activity at 0.1 µM [6] [%]	remaining activity at 1 µM [6] [%]	remaining activity at 0.1 µM ([7]; 0.1 µM) [%]	remaining activity at 1 µM [7] [%]	remaining activity at 0.1 µM [8] [%]	remaining activity at 1 µM [8] [%]	remaining activity at 0.1 µM [9] [%]	remaining activity at 1 µM [9] [%]	remaining activity at 0.1 µM [10] [%]	remaining activity at 1 µM [10] [%]
Cc1nc(Nc2ncc(C(=O)Nc3c(C)cccc3Cl)s2)cc(N2CCN(CCO)CC2)n1 [Dasatinib]	110	induced IL-10 production to similar levels as HG-9-91-01	little effect	94 ± 2	42 ± 1	88 ± 15	54 ± 1	117 ± 3	132 ± 1	98 ± 4	102 ± 1	126 ± 9	120 ± 4	94 ± 11	94 ± 2	98 ± 3	105 ± 14	101 ± 3	109 ± 7
COc1cc(Nc2c(C#N)cnc3cc(OCCCN4CCN(C)CC4)c(OC)cc23)c(Cl)cc1Cl [Bosutinib, bosutinib]	510	induced IL-10 production to similar levels as HG-9-91-01	little effect	72 ± 5	26	3	1	113 ± 1	103 ± 8	95 ± 5	85 ± 6	–	132 ± 7	102 ± 6	90 ± 3	96 ± 5	103 ± 3	91 ± 2	102 ± 4
